Patent US5342612A, “Compositions for the treatment of mammalian diseases” (priority 1991, dated 1994)

Tests used:
[1] = system: S. aureus mastitis (Newbould 305); experiment: r-BoIL-2 formulated in poloxamer 407 NF as a therapeutic for S. aureus mastitis (Example 6); type: in vivo, Holstein-Fresian dairy cattle
Protocol: This experiment compares r-BoIL-2 formulated in poloxamer 407 NF, against CEFA-LAK® (cephapirin in a commercial formulation), Na cephapirin (in PBS) and r-BoIL-2 in combination with Na cephapirin (in PBS) as potential therapeutics for S. aureus mastitis. The study employs the following materials: recombinant bovine interleukin-2 (r-BOIL-2, Immunex Corporation, Seattle, Wash.); CEFA-LAK® (200 mg cephapirin as cephapirin sodium in a commercially packaged dose, Bristol-Meyers, Evansville, Ind.); 200 mg Na cephapirin dissolved in 10.0 mL sterile saline; PLURONIC® ACID F127 (poloxamer 407 NF, BASF Corporation, Parsippany, N.J.).
The treatment of Holstein-Fresian dairy cattle is run over three days. There are four treatment groups as follows:
Treatment 1=2 infusions consisting of 200 mg cephapirin (as CEFA-LAK®),at 0 and 12 hours.
Treatment 2=3 infusions consisting of 10 mg r-BoIL-2/poloxamer 407 NF at 0, 24 and 48 hours.
Treatment 3=3 infusions consisting of 3.3 mg r-BoIL-2 in 10 mL PBS at 0, 24 and 48 hours, followed by 2 infusions of 200 mg Na cephapirin in 10 mL PBS at 0 and 12 hours.
Treatment 4=2 infusions consisting of 200 mg Na cephapirin in 10 mL PBS at 0 and 12 hours.
All mammary glands to be infused have been infected with S. aureus (Newbould 305). Infusions are made into the teat cistern of a milked out mammary gland after the prescribed milking. […]

S. aureus [2] = experiment: Potentiation of bacteriostatic activity of lysostaphin by vehicles (checkered analysis); type: cell-based, Staphylococcus aureus; conditions: for Vehicle Conc. w/Max. Potentiation (%): with r-lysostaphin; for Character of potentiation: in words (footnotes, text); for Potentiation Index Compared to Lysostaphin: M.I.C. of r-lysostaphin in saline / M.I.C. in formulation with the vehicle
Excerpt: In order to identify the nontoxic formulations for mammalian use, toxicity is employed as a method to eliminate direct bactericidal effects on the S. aureus, as well as potential toxic effects on the target animal. Compounds are formulated with r-lysostaphin at concentrations below toxic effects and compared to the bacteriostatic activity of r-lysostaphin in a saline formulation. Some compounds potentiate r-lysostaphin bacteriostatic activity by as much as 300-1000 fold.
Several surfactants, detergents, oils, emollients and membrane solubilizers are chosen as representative of various classes of compounds which may affect protein activity. These vehicles are then evaluated for toxicity and potentiation of the bacteriostatic effects of r-lysostaphin on S. aureus according to the methods described in the foregoing examples. […] Secondly, the vehicles are subjected to the toxicity test on murine cells in vitro. Viable cells are evaluated by trypan blue exclusion and normalized to an untreated control. Thereafter, dairy cattle are infused through the teat canal with various concentrations of the vehicle to make a determination of the irritation potential after intramammary infusion as a measure of mammalian toxicity. Milk samples are collected after infusion of said vehicles and the somatic cell count is determined. The Stimulation Index equals the post-infusion SCC divided by the pre-infusion SCC. The vehicles showing minimal toxicity to S. aureus and mammalian cells in vitro and in vivo are subsequent candidates for evaluation in the in vivo potentiation trials.
Various vehicle combinations are tested in a standard checkered analysis which simultaneously varies the concentration of both parameters to examine the individual contribution of each. Vehicles are all compared to r-lysostaphin in a saline solution, i.e., the potentiation index. […] Glycerol and triacetin, while only potentiating the activity of r-lysostaphin 6-8 fold, is manifested by bactericidal effects (see above Table IV).

[3] = system: Staphylococcus aureus mastitis (Newbould 305); experiment: Efficacy of lysostaphin formulated in vehicles as intramammary infusion against Staphylococcus aureus mastitis; type: in vivo, bovine (dairy cows)
Excerpt: This experiment examines the ability of various lysostaphin formulations to eliminate S. aureus infections in the bovine mammary gland and compares the formulations with the testing of lysostaphin in a peanut oil-gel matrix, similar to that used in the commercial product CEFA-LAK®, which is used to treat mastitis in lactating dairy cows.
Lysostaphin is formulated in three vehicles: 15% w/v poloxamer 407 NF, 50% w/v glycerol or 10% w/v triacetin. Lysostaphin is also formulated in a peanut oil-gel matrix. These formulations are infused into the bovine mammary gland and the ability of these combinations to exact a biological response, either by curing the infection or by clearing the mammary gland temporarily of S. aureus, are assessed.
Recombinant lysostaphin is suspended in 10.0 mL of peanut oil vehicle or dissolved in 60.0 mL of appropriate sterile vehicle (sPBS) at a concentration of 10.0 mg/mL or 1.67 mg/mL, respectively. Each of 15% poloxamer 407 NF (PLURONIC® ACID F127, a polyoxyethylene-polyoxypropylene derivative, BASF Corporation, Parsippany, N.J.); 50% glycerol (Sigma Chemical Co., St. Louis, Mo.); and 10% triacetin (glyceryl triacetate, Sigma Chemical Co., St. Louis, Mo.) are prepared in sterile phosphate buffered saline.
Staphylococcus aureus infections of the mammary gland provide an excellent model system for evaluating therapeutic efficacy of a variety of pharmaceutical and biological agents for many infectious diseases of mammals. Therefore, experimental infections are established with S. aureus (strain Newbould 305). All mammary glands to be inoculated are free of pathogens and have individual quarter somatic cell counts (SCC) less than 200,000 cells/mL of milk. Inoculum is prepared from a four-hour culture grown in trypticase soy broth and diluted. Inoculations are made by infusion of 1.0 mL diluted culture containing 90 colony forming units of S. aureus (Newbould 305) into the teat cistern of a milked-out mammary quarter. Quarters which fail to establish an infection after six days from initial inoculation are reinfected.
Prepared in PBS is 50% glycerol and the solution is then sterile filtered (0.45μ). Poloxamer 407 NF is mixed overnight and prepared similarly. A 10% triacetin solution is prepared aseptically in sterile PBS. Appropriate amounts of lysostaphin is added so the final concentration is 1.67 mg/mL. All preparations are in a total volume of 60.0 mL and made the day of the infusion. All solutions are sterile filtered through a 0.45μ filter.
Duration of treatment: 3 consecutive PM milkings
Quarters are randomly assigned to one of six treatment groups. All quarters are infused with the appropriate vehicle (60.0 mL) with or without lysostaphin over three consecutive PM milkings. […]

S. aureus [4] = experiment: Potentiation of lysostaphin bactericidal activity (minimum bactericidal concentration assay, survival of S. aureus); type: cell-based, Staphylococcus aureus; conditions: 18 h
Protocol: Preparation of 50% glycerol and 15% poloxamer 407 NF plus lysostaphin is as follows: The lysostaphin stock of 2.5 mg/mL is thawed and filtered through a 0.22μ filter. [formula]
In a similar fashion, triacetin solutions are also prepared.
Mueller-Hinton Broth containing lysostaphin is prepared as above. Penicillin in Mueller-Hinton Broth is prepared to serve as a control. Starting with a frozen 2.5 mg/mL stock solution the penicillin is diluted as follows: 400 μl of 2.5 mg/mL is placed in 600 μl of Mueller-Hinton Broth to yield a 1000 μg/mL solution. Added to 3744 μl of Mueller-Hinton Broth is 256 μl of the 1000 μg/mL solution to yield a 64 μg/mL solution.
Placed in sterile tubes are 2 mL of the vehicle and lysostaphin; Mueller-Hinton Broth plus lysostaphin; and Mueller-Hinton Broth plus penicillin. Serial two-fold dilutions are performed by hand using 1 mL of the appropriate vehicle as the diluent. Lysostaphin and penicillin dilutions range from 64 μg/mL to 0.25 μg/mL. All combinations are done in duplicate. The Staphylococcus aureus is grown for 5 hours in 5 mL of TSB and 0.1 mL is removed and placed in 9.9 mL of saline. Each tube is inoculated with 100 μl of the diluted culture. Plate counts are performed on the inoculum. All tubes are incubated for 18 hours at 37° C. with constant agitation. Following incubation, each dilution of lysostaphin in the vehicles or Mueller-Hinton Broth and penicillin in Mueller-Hinton Broth is diluted in phosphate buffered saline to 10^-2, 10^-4 and 10^-6.
Plated on a TSA with 10% sheep blood is 100 μl of the undilute and of each dilution. The plates are inverted and incubated for 18 hours. Following incubation, the number of colonies on each plate is counted.
The vehicles which inhibit the growth or are moderately bactericidal to S. aureus by themselves are unable to be evaluated using the MIC procedure. For these vehicles a minimum bactericidal concentration assay (MBC) is performed. This assay in conjunction with the previous MIC data distinguish bacteriostatic effects versus bactericidal effects of the vehicles. Various formulations are mixed with lysostaphin at a final concentration of 32 μg/mL. Ten, serial two- or four-fold dilutions of the lysostaphin are performed in the vehicle and each tube inoculated with a 2-6 x's 106 S. aureus CFU's (bacterial colony-forming units). Samples are removed after 18 hours and plated on blood agar plates.

[5] = Toxicosis following r-BoIL-2 and r-BoIL-1 formulated infusions; type: in vivo, dairy cattle; conditions: in words
Excerpt: Daily observations of dairy cattle are made for any signs of toxicosis following the beginning of treatment.

[6] = lysostaphin (or penicillin) 1 μg/mL
[7] = lysostaphin (or penicillin) 4 μg/mL

Molecule: CC(=O)OCC1=C(C(=O)O)N2C(=O)[C@@H](NC(=O)CSc3ccncc3)[C@H]2SC1 [Cephapirin]
- Response (%) ([1]; CEFA-LAK 200 mg x2, r-BoIL-2/F127 10 mg x3, r-BoIL-2 3.3 mg x3 + cephapirin 200 mg x2, cephapirin 200 mg x2, quarters culture negative at first sampling): 85%
- Cure (%) ([1]; same doses, days eight to fifteen following final treatment): 23.1%

Molecule: CCCCCCCCCC(=O)N(C)C[C@H](O)[C@@H](O)[C@H](O)[C@H](O)CO [Decanoyl-n-methylglucamid]
- Vehicle Conc. w/Max. Potentiation (%) (S. aureus [2]): 0.078%

Molecule: CCCCCCCCCCCCO[C@@H]1O[C@H](CO)[C@@H](O[C@H]2O[C@H](CO)[C@@H](O)[C@H](O)[C@H]2O)[C@H](O)[C@H]1O [Dodecyl B-D-maltosid]
- Vehicle Conc. w/Max. Potentiation (%) (S. aureus [2]): 0.0024%

Molecule: OCC(O)CO [Glycerol]
- % Cures ([3]; 100 mg lysostaphin infusions on three consecutive days): 25%
- Effect on potentiating the in vivo efficacy of lysostaphin ([3]; in words): Neither glycerol nor triacetin (both have a cure rate of 25%) has any significant effect
- Character of potentiation (S. aureus [2]): Potentiates the bactericidal activity of rlysostaphin
- Vehicle Conc. w/Max. Potentiation (%) (S. aureus [2]): 50.0%

Molecule: CCCCCCCC(=O)N(C)C[C@H](O)[C@@H](O)[C@H](O)[C@H](O)CO [Octanoyl-n-methylglucamid]
- Vehicle Conc. w/Max. Potentiation (%) (S. aureus [2]): 0.31%

Molecule: CC1(C)S[C@@H]2[C@H](NC(=O)Cc3ccccc3)C(=O)N2[C@H]1C(=O)O [Penicillin, reference compound]
- Survival of S. aureus CFU (Log 10) in Vehicles (S. aureus [4]; lysostaphin (or penicillin) 0.5 μg/mL): 4.2 CFU (Log 10)
- Killing of S. aureus (footnote class) (S. aureus [4]; [6]): ^3 (Greater than 99.99% killing of S. aureus)
- Survival of S. aureus CFU (Log 10) in Vehicles (S. aureus [4]; [6]): 2.5 CFU (Log 10)
- Killing of S. aureus (footnote class) (S. aureus [4]; [7]): ^3 (Greater than 99.99% killing of S. aureus)
- Survival of S. aureus CFU (Log 10) in Vehicles (S. aureus [4]; [7]): 3.1 CFU (Log 10)
- Survival of S. aureus CFU (Log 10) in Vehicles (S. aureus [4]; lysostaphin (or penicillin) 8 μg/mL): 0 CFU (Log 10)
- Killing of S. aureus (footnote class) (S. aureus [4]; penicillin 0.5 μg/mL): ^3 (Greater than 99.99% killing of S. aureus)

Molecule: CC(O)CO (stereo not drawn) [Propylene Glycol]
- Vehicle Conc. w/Max. Potentiation (%) (S. aureus [2]): 0.195%

Molecule: CCCCCCCCCCCCOC1O[C@H](CO)[C@@H](O)[C@H](O)[C@H]1O (stereo partly drawn) [n-Dodecylglucosid]
- Potentiation Index Compared to Lysostaphin (S. aureus [2]): 1025.0
- Character of potentiation (S. aureus [2]): Potentiation is eliminated when diluted fourfold
- Vehicle Conc. w/Max. Potentiation (%) (S. aureus [2]): 0.078%

Molecule: CCCCCCCCOC1O[C@H](CO)[C@@H](O)[C@H](O)[C@H]1O (stereo partly drawn) [n-Octylglucosid]
- Potentiation Index Compared to Lysostaphin (S. aureus [2]): 1.0
- Vehicle Conc. w/Max. Potentiation (%) (S. aureus [2]): 0.039%

B1: r-BoIL-2: recombinant bovine interleukin-2, Immunex Corporation, Seattle, Wash. (protein, UniProt P05016 21-155, looked up)
Interleukin-2: APTSSSTGNTMKEVKSLLLDLQLLLEKVKNPENLKLSRMHTFDFYVPKVNATELKHLKCLLEELKLLEEVLNLAPSKNLNPREIKDSMDNIKRIVLELQGSETRFTCEYDDATVNAVEFLNKWITFCQSIYSTMT
- Observable signs of toxicosis / adverse clinical signs ([5]; compared with PBS carrier): A decrease of adverse clinical signs are observed
- Side effects compared with r-BoIL-2 in PBS ([5]; in polyoxypropylene-polyoxyethylene block copolymer): substantially less detrimental to an animal than infusions of r-BoIL-2 in sterile phosphate buffered saline
